The values that follow come from US9567578B1, “Cell line containing a knockout of the glutamine synthetase (GS) gene and a method of producing target proteins using a GS knockout HEK293 cell line” (Korea Advanced Institute of Science and Technology, priority 2016, dated 2017).

The structures appear in SMILES notation. Read-outs that look alike come from different tables or passages of the source.

Assay [1] deals with HEK293_GS-KO host cell line. The following applies: glutamine-free selection medium. On the procedure:
(§1) First, the cells were inoculated in T-25 flask containing 5 ml of DMEM supplemented with 1×GSEM, 7% (v/v) FBS and glutamine at the density of 4×10^5 cells/ml. 24 hours later, when the cultured cells reached 90% of confluency in the flask, the vector containing a target protein gene mixed with liposome was additionally added to the gs gene knockout HEK293 cell line prepared in Experimental Example 1. 24 hours later, the selection marker protein (GS) inhibitor MSX was treated to the selection medium (glutamine-free DMEM supplemented with 1×GSEM and 10% (v/v) dFBS) at the concentrations of 0 μM, 25 μM, 50 μM, and 100 μM. The cells introduced with the vector were inoculated in the 96 well plate by 200 μl/well. The wild type HEK293 host cell line was also introduced with a target protein gene by the same manner as described above, followed by the selection from the 96 well plate. The cell concentration for the inoculation into the 96 well plate was determined by the concentration at which only one clone would survive after 3 weeks of selection period. To select the MSX resistant cell line (transformed cell line), the cells showing MSX resistance could be collected as a pool or prepared as each individual clone and herein the cell line was collected as an individual clone.
(§2) In the table above, “survival rate” was obtained by dividing the number of all the wells containing the cell by the number of the total inoculated wells.
(§3) The cells inoculated in a 96 well plate were observed under microscope and the medium was replaced every 5˜7 days. […] The collected cells were inoculated in a 48 well plate (500 μl). When the cells were grown in the well, the cells were inoculated again in a 24 well plate (1 ml). When the cells were fully grown in the 24 well plate, the cells were collected and inoculated in another 24 well plate containing 1 ml of culture medium at the density of 1×10^5 cells/ml. To quantify the production of the target protein, batch culture was performed for 6 days. On the 6th day, the medium was collected and ELISA was performed with the target protein to measure the productivity of each clone. By the method above, 50 clones originated from the gs knockout HEK93 cell line were constructed each in the presence of 0 μM, 25 μM, and 50 μM of MSX. 50 control clones originated from the wild type HEK293 cell line were also constructed for comparison.
(§4) In the Table above, “selection efficiency” indicates the portion of high production clones (those clones that could produce a target protein at least 1 μg/μl until the 6th day) in 50 constructed clones at each condition.

Assay [2] relates to wild type HEK293 host cell line. The note with it: glutamine-free selection medium. How it is done: as §1, §2, §3, §4
Assay [3] relates to HEK293 cell line. The following applies: glutamine-free EX-CELL 293 SFM, MSX 0-1000 μM, suspension culture.
Procedure: The cell growth rate and the cell viability were investigated in the course of culture of HEK293 cell line with the addition of different concentrations of MSX.
Particularly, HEK293 host cells were inoculated in 50 ml of the glutamine-free EX-CELL® 293 SFM medium (Sigma), and also inoculated in the control medium supplemented with 4 mM glutamine. To the experimental group, MSX, the glutamine synthetase inhibitor, was added at the concentrations of 0 μM, 100 μM, 300 μM, 500 μM, and 1000 μM, respectively. The cell mixture was inoculated in Erlenmeyer flask at the density of 3×10^5 cells/ml, followed by suspension culture. 1 ml of the cell culture fluid was taken from each flask every 24 hours, followed by investigation of the cell concentration and the cell viability.

`CS(=N)(=O)CC[C@H](N)C(=O)O` (stereo partly shown) [MSX, methionine sulfoximine]: the Survival rate is 11.9% in assay [1] (MSX 25 μM, inoculation 2000 cells/96 well); 2.3% in assay [1] (MSX 50 μM, inoculation 2000 cells/96 well); 0.5% in assay [1] (MSX 100 μM, inoculation 5000 cells/96 well); 22.9% in assay [2] (MSX 25 μM, inoculation 1 cells/96 well); 28.1% in assay [2] (MSX 50 μM, inoculation 10 cells/96 well); 75.8% in assay [2] (MSX 100 μM, inoculation 500 cells/96 well). Also, the “resistance against MSX (cell growth and cell viability)” value in assay [3] is given as “high resistance”.
